Source: US11571423B2, “Small molecule modulators of human sting” (Curadev Pharma Limited, priority 2017, dated 2023)

The molecules below were run against hSTING(R232) (Homo sapiens, UniProt Q86WV6, H232R) (assay: Luciferase reporter assay in HEK293T-hSTING-Luciferase cells, R232 (wild type) human STING). Settings: 20 hr stimulation, read-out: R232 human activity (EC50 range).
Assay type: cell-based
Excerpt: Stable Cell Line Generation • a) Stable STING expressing cells—Stable HEK293T STING-expressing cell lines were generated using plasmids purchased from Invivogen, CA, USA, that contain STING cDNA cloned into the pUNO-1 vector under hEF1-HTLV promoter and containing the Blasticidin selection cassette. The plasmids hSTING(R232), hSTING(H232), hSTING(HAQ) were directly procured from Invivogen while hSTING (AQ) and hSTING (Q) were derived from hSTING(HAQ) and hSTING (R232) plasmids respectively by using a PCR based site directed mutagenesis method. These vectors were individually transfected into HEK293T cells using Lipofectamine (Invitrogen) and transfected cells were selected under Blasticidin selection. These transfected cells were further subjected to clonal selection using the limiting dilution method to obtain clonally pure populations of HEK cells transfected with each of the above mentioned human STING variants. Only those clones were selected in which ligand independent activation of STING was minimal. • b) Stable Luciferase reporter gene expressing cells—Stable HEK293T Luciferase reporter gene expressing cell lines were generated using pCDNA4 plasmids under an IRF-inducible promoter. This promoter is comprised of five tandem interferon-stimulated response elements (ISRE) fused to an ISG54 minimal promoter. This vector was transfected into HEK293T cells using Lipofectamine (Invitrogen) and transfected cells were selected under Zeocin selection. These transfected cells were further subjected to clonal selection using the limiting dilution method to obtain clonally pure populations of HEK cells transfected the Luciferase reporter construct. Only those clones were selected in which ligand independent induction of luciferase was minimal.
5×10^5 clonally selected HEK293T-hSTING-Luciferase cells were seeded in 384-well plates in growth medium and stimulated with novel compounds. After 20 hr of stimulation supernatant were removed and secretary reporter gene activity were measured using the Quanti-Luc detection system (Invivogen) on a Spectramax i3X luminometer.
In the tables below, EC50 value ranges for exemplary compounds are given.
All compounds were first tested in a primary screen to obtain a ‘fold-induction’ over baseline levels of protein activity.

Sequence of hSTING(R232) (Q86WV6 whole entry H232R): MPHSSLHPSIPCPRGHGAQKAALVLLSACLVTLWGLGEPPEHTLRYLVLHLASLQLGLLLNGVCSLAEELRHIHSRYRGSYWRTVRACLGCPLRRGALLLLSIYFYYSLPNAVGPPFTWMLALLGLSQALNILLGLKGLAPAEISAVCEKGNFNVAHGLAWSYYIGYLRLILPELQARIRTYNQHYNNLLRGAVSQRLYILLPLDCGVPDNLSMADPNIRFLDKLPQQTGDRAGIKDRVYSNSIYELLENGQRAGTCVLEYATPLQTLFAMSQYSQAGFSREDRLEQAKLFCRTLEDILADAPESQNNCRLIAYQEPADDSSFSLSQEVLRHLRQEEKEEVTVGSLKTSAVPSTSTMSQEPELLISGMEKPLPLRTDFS

| Structure (SMILES) | EC50 |
| --- | --- |
| CN1Cc2ccc(C(=O)NCc3cccc4occc34)cc2N(Cc2c(F)cccc2Cl)C1=O [Example 50, N-(benzofuran-4-ylmethyl)-1-(2-chloro-6-fluorobenzyl)-3-methyl-2-oxo-1,2,3,4-tetrahydroquinazoline-7-carboxamide] | > 10 µM |
| COc1cccc(F)c1CNC(=O)c1ccc2c(c1)N(Cc1c(F)cccc1Cl)C(=O)N(C)C2 [Example 41, 1-(2-chloro-6-fluorobenzyl)-N-(2-fluoro-6-methoxybenzyl)-3-methyl-2-oxo-1,2,3,4-tetrahydroquinazoline-7-carboxamide] | > 10 µM |
| CC1c2ccc(C(=O)NCc3c(F)cc(F)cc3F)cc2N(Cc2ccc(OCC(=O)O)cc2F)C(=O)N1C (stereo not drawn) [Example 228, 2-(4-((3,4-dimethyl-2-oxo-7-((2,4,6-trifluorobenzyl)carbamoyl)-3,4-dihydroquinazolin-1(2H)-yl)methyl)-3-fluorophenoxy)acetic acid] | > 10 µM |
| CN1Cc2ccc(C(=O)NCc3cc4cc(N)ccc4o3)cc2N(Cc2c(F)cccc2Cl)C1=O [Example 58, N-((5-aminobenzofuran-2-yl)methyl)-1-(2-chloro-6-fluorobenzyl)-3-methyl-2-oxo-1,2,3,4-tetrahydroquinazoline-7-carboxamide] | > 10 µM |
| CC1c2ccc(C(=O)NCc3ccc(OCC(=O)O)cc3)cc2N(Cc2c(F)cccc2Cl)C(=O)N1C (stereo not drawn) [Example 240, 2-(4-((1-(2-chloro-6-fluorobenzyl)-3,4-dimethyl-2-oxo-1,2,3,4-tetrahydroquinazoline-7-carboxamido)methyl)phenoxy)acetic acid] | > 10 µM |
| O=C(NCc1c(F)cc(F)cc1F)c1ccc2c(c1)N(Cc1c(F)cccc1Cl)C(=O)N(c1ncccn1)C2 [Example 21, 1-(2-chloro-6-fluorobenzyl)-2-oxo-3-(pyrimidin-2-yl)-N-(2,4,6-trifluorobenzyl)-1,2,3,4-tetrahydroquinazoline-7-carboxamide] | > 10 µM |
| COc1cccc(CN2C(=O)N(C)Cc3ccc(C(=O)NCc4c(F)cc(F)cc4F)cc32)c1F [Example 63, 1-(2-fluoro-3-methoxybenzyl)-3-methyl-2-oxo-N-(2,4,6-trifluorobenzyl)-1,2,3,4-tetrahydroquinazoline-7-carboxamide] | 1 to 10 µM |
| C[C@H]1c2ccc(C(=O)NCc3ccc(F)cc3OCCO)cc2N(Cc2c(F)cccc2Cl)C(=O)N1C [Example 284, (S)-1-(2-chloro-6-fluorobenzyl)-N-(4-fluoro-2-(2-hydroxyethoxy)benzyl)-3,4-dimethyl-2-oxo-1,2,3,4-tetrahydroquinazoline-7-carboxamide] | > 10 µM |
| C[C@H]1c2ccc(C(=O)NCc3c(O)cccc3F)cc2N(Cc2c(F)cccc2Cl)C(=O)N1C [Example 251, (S)-1-(2-chloro-6-fluorobenzyl)-N-(2-fluoro-6-hydroxybenzyl)-3,4-dimethyl-2-oxo-1,2,3,4-tetrahydroquinazoline-7-carboxamide] | 1 to 10 µM |
| COc1cccc(F)c1CN1C(=O)N(C)C(C)c2ccc(C(=O)NCc3c(F)cc(F)cc3F)cc21 (stereo not drawn) [Example 155, 1-(2-fluoro-6-methoxybenzyl)-3,4-dimethyl-2-oxo-N-(2,4,6-trifluorobenzyl)-1,2,3,4-tetrahydroquinazoline-7-carboxamide] | 1 to 10 µM |
| C[C@H]1c2ccc(C(=O)NCc3cc(F)cc(OCCO)c3)cc2N(Cc2c(F)cccc2Cl)C(=O)N1C [Example 266, (S)-1-(2-chloro-6-fluorobenzyl)-N-(3-fluoro-5-(2-hydroxyethoxy)benzyl)-3,4-dimethyl-2-oxo-1,2,3,4-tetrahydroquinazoline-7-carboxamide] | > 10 µM |
| CN1Cc2ccc(C(=O)NCc3cc4ccccc4o3)cc2N(Cc2cc(F)cc(F)c2)C1=O [Example 16, N-(benzofuran-2-ylmethyl)-1-(3.5-difluorobenzyl)-3-methyl-2-oxo-1,2,3,4-tetrahydroquinazoline-7-carboxamide] | 1 to 10 µM |
| CCN1Cc2ccc(C(=O)NCc3c(F)cc(F)cc3F)cc2N(Cc2cc(F)cc(F)c2)C1=O [Example 7, 1-(3,5-difluorobenzyl)-3-ethyl-2-oxo-N-(2,4,6-trifluorobenzyl)-1,2,3,4-tetrahydroquinazoline-7-carboxamide] | 1 to 10 µM |
| C[C@H]1c2ccc(C(=O)NCc3c(F)cc(F)cc3F)cc2N(Cc2c(Cl)cn(CCO)c(=O)c2F)C(=O)N1C [Example 297, (S)-1-((5-chloro-3-fluoro-1-(2-hydroxyethyl)-2-oxo-1,2-dihydropyridin-4-yl)methyl)-3,4-dimethyl-2-oxo-N-(2,4,6-trifluorobenzyl)-1,2,3,4-tetrahydroquinazoline-7-carboxamide] | > 10 µM |
| COc1cccc(F)c1CNC(=O)c1ccc2c(c1)N(Cc1c(F)cccc1Cl)C(=O)N(C)[C@H]2C [Example 245, (S)-1-(2-chloro-6-fluorobenzyl)-N-(2-fluoro-6-methoxybenzyl)-3,4-dimethyl-2-oxo-1,2,3,4-tetrahydroquinazoline-7-carboxamide] | 1 to 10 µM |
| CN1Cc2ccc(C(=O)NCc3cccc(-c4ccn(C)n4)c3)cc2N(Cc2c(F)cccc2Cl)C1=O [Example 28, 1-(2-chloro-6-fluorobenzyl)-3-methyl-N-(3-(1-methyl-1H-pyrazol-3-yl)benzyl)-2-oxo-1,2,3,4-tetrahydroquinazoline-7-carboxamide] | > 10 µM |

Continued, values first:

| EC50 | Structure (SMILES) |
| --- | --- |
| 1 to 10 µM | Cc1cc(CN2C(=O)N(C)C(C)c3ccc(C(=O)NCc4c(F)cc(F)cc4F)cc32)ccn1 (stereo not drawn) [Example 207, 3,4-dimethyl-1-((2-methylpyridin-4-yl)methyl)-2-oxo-N-(2,4,6-trifluorobenzyl)-1,2,3,4-tetrahydroquinazoline-7-carboxamide] |
| 1 to 10 µM | Cc1cc(CN2C(=O)N(C)C(C)c3ccc(C(=O)NCc4cc5cc(F)ccc5o4)cc32)n(C)n1 (stereo not drawn) [Example 223, 1-((1,3-dimethyl-1H-pyrazol-5-yl)methyl)-N-((5-fluorobenzofuran-2-yl)methyl)-3,4-dimethyl-2-oxo-1,2,3,4-tetrahydroquinazoline-7-carboxamide] |
| < 1 µM | CC1c2ccc(C(=O)NCc3c(F)cc(F)cc3F)cc2N(Cc2ccccc2F)C(=O)N1C (stereo not drawn) [Example 194, 1-(2-fluorobenzyl)-3,4-dimethyl-2-oxo-N-(2,4,6-trifluorobenzyl)-1,2,3,4-tetrahydroquinazoline-7-carboxamide] |
| < 1 µM | Cc1ccc(F)c(CN2C(=O)N(C)C(C)c3ccc(C(=O)NCc4c(F)cc(F)cc4F)cc32)c1Br (stereo not drawn) [Example 220, 1-(2-bromo-6-fluoro-3-methylbenzyl)-3,4-dimethyl-2-oxo-N-(2,4,6-trifluorobenzyl)-1,2,3,4-tetrahydroquinazoline-7-carboxamide] |
| < 1 µM | CC1c2ccc(C(=O)NCc3c(F)cc(F)cc3F)cc2N(Cc2c(F)cc(F)cc2OC(F)(F)F)C(=O)N1C (stereo not drawn) [Example 210, 1-(2,4-difluoro-6-(trifluoromethoxy)benzyl)-3,4-dimethyl-2-oxo-N-(2,4,6-trifluorobenzyl)-1,2,3,4-tetrahydroquinazoline-7-carboxamide] |
| < 1 µM | CC1c2ccc(C(=O)NCc3c(F)cc(F)cc3F)cc2N(Cc2c(F)cccc2OC(F)F)C(=O)N1C (stereo not drawn) [Example 216, 1-(2-(difluoromethoxy)-6-fluorobenzyl)-3,4-dimethyl-2-oxo-N-(2,4,6-trifluorobenzyl)-1,2,3,4-tetrahydroquinazoline-7-carboxamide] |
| < 1 µM | CC1c2ccc(C(=O)NCc3c(F)cc(F)cc3F)cc2N(Cc2ccncc2F)C(=O)N1C (stereo not drawn) [Example 211, 1-((3-fluoropyridin-4-yl)methyl)-3,4-dimethyl-2-oxo-N-(2,4,6-trifluorobenzyl)-1,2,3,4-tetrahydroquinazoline-7-carboxamide] |
| < 1 µM | Cc1cccc(C)c1CN1C(=O)N(C)C(C)c2ccc(C(=O)NCc3c(F)cc(F)cc3F)cc21 (stereo not drawn) [Example 215, 1-(2,6-dimethylbenzyl)-3,4-dimethyl-2-oxo-N-(2,4,6-trifluorobenzyl)-1,2,3,4-tetrahydroquinazoline-7-carboxamide] |
| < 1 µM | CN1Cc2ccc(C(=O)NCc3c(F)cc(F)cc3F)cc2N(Cc2ccc(F)cc2)C1=O [Example 6, 1-(4-fluorobenzyl)-3-methyl-2-oxo-N-(2,4,6-trifluorobenzyl)-1,2,3,4-tetrahydroquinazoline-7-carboxamide] |
| < 1 µM | COc1ccc(CN2C(=O)N(C)C(C)c3ccc(C(=O)NCc4c(F)cc(F)cc4F)cc32)c(F)c1 (stereo not drawn) [Example 217, 1-(2-fluoro-4-methoxybenzyl)-3,4-dimethyl-2-oxo-N-(2,4,6-trifluorobenzyl)-1,2,3,4-tetrahydroquinazoline-7-carboxamide] |
| < 1 µM | CC1c2ccc(C(=O)NCc3c(F)cc(F)cc3F)cc2N(Cc2c(F)cccc2Br)C(=O)N1C (stereo not drawn) [Example 159, 1-(2-bromo-6-fluorobenzyl)-3,4-dimethyl-2-oxo-N-(2,4,6-trifluorobenzyl)-1,2,3,4-tetrahydroquinazoline-7-carboxamide] |
